According to patent US20210299156A1 (priority 2020, published 2021):
pEC50: −log10 of the molar value. Read-outs that look alike come from different tables or passages of the source.

How the values were obtained:
[1] = system: SARS-CoV-2; format: cell-based; details: EPIAIRWAY tissue pretreated with 2.5, 25, 250 μM; MOI 0.1
[2] = system: SARS-CoV-2; format: cell-based; details: EPINASAL tissue pretreated with 2.5, 25, 250 μM; MOI 0.1
[3] = system: SARS-CoV-2; format: in vivo, K18-hACE2 mice; details: 12 mg/kg per day intraperitoneal osmotic pump; 7 days after virus challenge
[4] = system: SARS-CoV-2; format: cell-based; details: MOI 0.1
[5] = system: SARS-CoV-2; format: cell-based; details: for pEC50: MOI 0.1
[6] = system: SARS-CoV-2; set-up: species or system K18-hACE2 mice; details: mouse, in vivo
[7] = system: SARS-CoV-2; details: VERO E6 cells
[8] = system: EPIAIRWAY™ tissue
[9] = molecular target: plasma membrane nucleolin (Homo sapiens, UniProt P19338); set-up: key: 1: Indicates a good plasma membrane nucleolin-binding GRO.; 2: Indicates a nucleolin control (non-plasma membrane nucleolin binding); details: cited from earlier work
[10] = PEP: drug 4 hours after virus challenge
[11] = PrEP: drug 4 hours before virus challenge

Sequence of plasma membrane nucleolin (P19338 whole entry): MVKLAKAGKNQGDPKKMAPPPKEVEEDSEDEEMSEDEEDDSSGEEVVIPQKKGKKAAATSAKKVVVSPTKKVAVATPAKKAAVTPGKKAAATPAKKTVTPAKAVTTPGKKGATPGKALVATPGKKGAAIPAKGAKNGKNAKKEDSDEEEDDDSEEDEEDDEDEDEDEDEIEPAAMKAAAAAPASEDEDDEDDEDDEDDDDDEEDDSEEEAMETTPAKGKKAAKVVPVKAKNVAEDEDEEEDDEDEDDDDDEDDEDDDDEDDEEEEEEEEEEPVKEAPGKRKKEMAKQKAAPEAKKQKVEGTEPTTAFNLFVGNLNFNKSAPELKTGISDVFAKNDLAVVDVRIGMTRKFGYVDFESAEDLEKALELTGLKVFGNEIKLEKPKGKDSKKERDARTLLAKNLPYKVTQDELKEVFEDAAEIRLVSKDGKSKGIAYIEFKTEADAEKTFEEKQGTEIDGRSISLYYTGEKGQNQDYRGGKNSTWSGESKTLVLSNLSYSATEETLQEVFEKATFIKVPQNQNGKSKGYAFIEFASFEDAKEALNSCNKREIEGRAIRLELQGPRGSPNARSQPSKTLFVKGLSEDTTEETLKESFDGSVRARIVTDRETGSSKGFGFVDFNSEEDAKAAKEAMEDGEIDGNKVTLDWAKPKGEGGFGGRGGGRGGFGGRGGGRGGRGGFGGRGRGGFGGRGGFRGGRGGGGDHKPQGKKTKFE

AS1411: GRO nucleolin-binding DNA aptamer, SEQ ID NO:10, ggtggtggtg gttgtggtgg tggtgg
reduction in viral titer [1]: ≤ 5 logs fold
reduction in viral titer [2]: ≤ 3.5 logs fold
survival rate [3]: 100%
pEC50 [4, 10]: 5.83
EC90 [4, 10]: 3200 nM
pEC50 [4, 11]: 6.01
EC90 [4, 11]: 2160 nM
protective effect compared to the vehicle group ([5]; 2.5 μM and 20 μM, EPIAIRWAY tissue, FIG. 29): reduction of virus
pEC50 ([5]; 72 Hours Post-Infection, EPIAIRWAY tissue): 6.03
pEC50 ([5]; 96 Hours Post-Infection, EPIAIRWAY tissue): 5.85
pEC50 ([5]; 120 Hours Post-Infection, EPIAIRWAY tissue): 6.19
interference between AS1411 and remdesivir in combination ([5]; EPIAIRWAY tissue TCID50/ml, FIG. 27): do not interfere with each other
interference between AS1411 and dexamethasone in combination ([5]; EPIAIRWAY tissue TCID50/ml, FIG. 28): do not interfere with each other
inhibiting the virus (TCID50/ml) [6]: effective for inhibiting the virus in the nasal passage and kidneys of the mice, although not as effectively as in the lungs
inhibiting the virus in the brain (TCID50/ml) [6]: not effective for inhibiting the virus in the brain
inhibiting the virus in the lungs (TCID50/ml) [6]: effective for inhibiting the virus in the lungs
concentration at which inhibition of SARS-CoV-2 virus-induced syncytium formation begins ([7]; MOI 0.01, 72 hours): ≥ 0.625 µM
dose at which cytopathic effects of SARS-CoV-2 are markedly reduced ([7]; MOI 0.01, 72 hours): ≥ 0.625 µM
cytotoxicity ([7]; from 0.625 μM): without cytotoxicity
toxicity in EPIAIRWAY model [8]: not toxic
plasma membrane nucleolin binding (footnote designation) [9]: GRO26B^1
